Assay results published in patent publication US20190345138A1, “HETEROCYCLIC AMIDES AS KINASE INHIBITORS” (GlaxoSmithKline Intellectual Property Development Limited, priority 2016, published 2019).
Several values for one entry are separate records, joined by “and”; a condition that tells them apart may be missing. Equal entries are not always repeated.

Experiments:
[1] = background statement; cited from earlier work
[2] = system: TNF-driven systemic inflammatory response syndrome model; experiment: TNF-driven systemic inflammatory response syndrome model (TNF/zVAD or TNF alone), temperature loss; format: in vivo; conditions: Mus musculus, po, pre-dosed 15 minutes before i.v. mouse TNF alone or with zVAD; for inhibition in vivo at 10 mg/kg: 10 mg/kg PO; for inhibition in vivo at 3 mg/kg: 3 mg/kg PO
Source text: The efficacy of RIP1 inhibitors can be tested in mice in vivo using a TNF-driven systemic inflammatory response syndrome model (L. Duprez et al. Immunity 35(6):908-918, (2011)) using TNF plus the caspase inhibitor zVAD or TNF alone. The TNF/zVAD model is terminated at ˜3 hrs and the TNF alone model is terminated at ˜8 hrs (under IACUC guidelines for temperature loss). TNF (or TNF/zVAD) induced manifestations include temperature loss, the production of numerous cytokines (including IL-6, IL-1b, MIP1β and MIP2) in the periphery, liver and intestinal inflammation and an increase of markers of cellular (LDH and CK) and liver damage (AST and ALT) in the serum. Inhibition of these TNF alone or TNF/zVAD induced manifestations can be shown by PO pre-dosing with selected compounds. For example, mice (8 mice per group) were pre-dosed PO with vehicle or compound 15 minutes before i.v. administration of mouse TNF (30 μg/mouse) alone or in combination with zVAD (0.4 mg/mouse) simultaneously. Temperature loss in the mice was measured by rectal probe. The study was terminated when the control group lost 7 degrees, per our IACUC protocol. All data are shown as means±standard error of the mean.

[3] = target: T1, RIP1 kinase (Homo sapiens, UniProt Q13546); experiment: fluorescent polarization based binding assay; conditions: mean of a minimum of 2 experiments
T1 sequence (Q13546 1-375 limits assumed): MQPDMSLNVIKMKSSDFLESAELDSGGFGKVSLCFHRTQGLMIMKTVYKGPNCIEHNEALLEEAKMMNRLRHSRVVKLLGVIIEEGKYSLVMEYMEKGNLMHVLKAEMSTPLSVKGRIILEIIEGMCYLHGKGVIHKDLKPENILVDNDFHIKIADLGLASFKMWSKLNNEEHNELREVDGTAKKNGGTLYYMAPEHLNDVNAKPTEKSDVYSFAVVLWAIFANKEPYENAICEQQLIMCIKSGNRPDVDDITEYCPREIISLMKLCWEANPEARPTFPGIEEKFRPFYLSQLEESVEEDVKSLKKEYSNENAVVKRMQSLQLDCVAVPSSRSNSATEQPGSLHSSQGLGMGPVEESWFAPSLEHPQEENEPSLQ
Source text: A fluorescent polarization based binding assay was used to assess the activity of the compounds of this invention, the details of which are disclosed in International Patent Appln. No. PCT/IB2014/059004, now, International Patent Appln. Pub.

[4] = system: mouse L929 fibrosarcoma cells; experiment: necroptosis assay in L929 cells; format: cell-based; conditions: L929 cells, viability by cellular ATP (Cell Titer-Glo), read-out: pIC50, inhibited necrosis in L929 cells (converted)
Description: The efficacy of RIP1 inhibitors can be tested […] in vitro using a human monocytic leukemia U937 or mouse L929 fibrosarcoma cells in a necroptosis assay. As determined using the method described in S. He et al., Cell, 137(6):1100-1111 (2009) and International Patent Appln. No. PCT/IB2014/059004, now, International Patent Appln. Pub.
Viability was measured by quantitating cellular levels of ATP using the Cell Titer-Glo kit. All data are means±standard deviation of the mean.

[5] = system: human monocytic leukemia U937 cells; experiment: necroptosis assay in U937 cells; format: cell-based; conditions: viability by cellular ATP (Cell Titer-Glo)
Outline: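 Necroptosis was induced in human U937 or mouse L929 cells, and viability was quantified as cellular ATP with Cell Titer-Glo. Data are means±standard deviation.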

Structure (SMILES): CN1C(=O)C(Cc2c[nH]c3ccccc23)NC1=S (stereo not drawn) [Necrostatin-1]
- oral bioavailability [1]: poor

Structure (SMILES): NC(=O)c1cc(N2CCC(C(=O)N3N=CC[C@H]3c3ccccc3)CC2)ncn1 [Example 32, (S)-6-(4-(5-phenyl-4,5-dihydro-1H-pyrazole-1-carbonyl)piperidin-1-yl)pyrimidine-4-carboxamide]
- inhibition in vivo at 10 mg/kg [2]: 104%
- IC50 [3]: 1 to 31.6 nM and 1 to 10 nM and ~10 nM
- IC50 [4]: ~316 nM

Structure (SMILES): NC(=O)c1ccnc(N2CCC(C(=O)N3N=CC[C@H]3c3cncc(F)c3)CC2)n1 [Example 109, (S)-2-(4-(5-(5-fluoropyridin-3-yl)-4,5-dihydro-1H-pyrazole-1-carbonyl)piperidin-1-yl)pyrimidine-4-carboxamide]
- inhibition in vivo at 3 mg/kg [2]: 84%
- IC50 [3]: 1 to 31.6 nM and ~25.1 nM
- IC50 [4]: ~251 nM

Structure (SMILES): NC(=O)c1cc(N2CCC(C(=O)N3N=CC[C@H]3c3cncc(F)c3)CC2)ncn1 [Example 108, (S)-6-(4-(5-(5-fluoropyridin-3-yl)-4,5-dihydro-1H-pyrazole-1-carbonyl)piperidin-1-yl)pyrimidine-4-carboxamide]
- inhibition in vivo at 0.1 mg/kg ([2]; 0.1 mg/kg PO): -4%
- inhibition in vivo at 1 mg/kg ([2]; 1.0 mg/kg PO): -11%
- inhibition in vivo at 10 mg/kg [2]: 54%
- inhibition in vivo at 100 mg/kg ([2]; 100 mg/kg PO): 94%
- IC50 [3]: 1 to 31.6 nM and ~31.6 nM
- pIC50, inhibited necrosis in U937 cells ([5]; U937 cells): ~7.3
- IC50 [4]: ~10000 nM

Structure (SMILES): N#Cc1cccc([C@@H]2CC=NN2C(=O)C2CCN(c3nccc(C(N)=O)n3)CC2)c1 [Example 71, (S)-2-(4-(5-(3-cyanophenyl)-4,5-dihydro-1H-pyrazole-1-carbonyl)piperidin-1-yl)pyrimidine-4-carboxamide]
- inhibition in vivo at 10 mg/kg [2]: 93%
- IC50 [3]: 1 to 31.6 nM and ~15.8 nM
- IC50 [4]: ~794 nM

Structure (SMILES): Nc1cc(N2CCC(C(=O)N3N=CC[C@H]3c3ccccc3)CC2)ncn1 [Example 20, (S)-(1-(6-aminopyrimidin-4-yl)piperidin-4-yl)(5-phenyl-4,5-dihydro-1H-pyrazol-1-yl)methanone]
- inhibition in vivo at 10 mg/kg [2]: 92%
- IC50 [3]: 1 to 31.6 nM and ~15.8 nM
- IC50 [4]: ~1000 nM

Structure (SMILES): NC(=O)c1cnc(N2CCC(C(=O)N3N=CC[C@H]3c3ccccc3)CC2)nc1 [Example 131, (S)-2-(4-(5-phenyl-4,5-dihydro-1H-pyrazole-1-carbonyl)piperidin-1-yl)pyrimidine-5-carboxamide]
- inhibition in vivo at 10 mg/kg [2]: 83%
- IC50 [3]: ~39.8 nM
- IC50 ([5]; Homo sapiens, U-937, U937 cells, read-out: pIC50, inhibited necrosis in U937 cells (converted)): ~158 nM
- IC50 [4]: ~3980 nM

Structure (SMILES): NC(=O)c1cc(N2CCC(C(=O)N3N=CC[C@H]3c3cc(F)cc(F)c3)CC2)ncn1 [Example 85, (S)-6-(4-(5-(3,5-difluorophenyl)-4,5-dihydro-1H-pyrazole-1-carbonyl)piperidin-1-yl)pyrimidine-4-carboxamide]
- inhibition in vivo at 3 mg/kg [2]: 88%
- IC50 [3]: 1 to 31.6 nM and 1 to 10 nM and ~10 nM
- IC50 [4]: ~316 nM
